According to paper PMC7824033, “Flavones, Flavonols, and Glycosylated Derivatives—Impact on Candida albicans Growth and Virulence, Expression of CDR1 and ERG11, Cytotoxicity” (Pharmaceuticals, 2020):
Values after ≈ are worked out from the molar mass of the structure shown. “Also recorded” adds a separate entry of the source. Like-named read-outs stand apart in the source and are kept apart here.

What was measured:
[1] = test system: non-tumor colon cell (IEC-18); set-up: method as in PMID 25359775; details: up to 150 μM; cited from earlier work
[2] = test system: ERG11; experiment: Expression of ERG11 (qPCR); format: cell-based, Candida albicans; details: treatment with MIC
Experimental: (§1) Total RNA was isolated as described by Sanglard et al. with some modifications. C. albicans 475/15 was grown with agitation at 30 °C in YEPD until OD540 = 0.4. C. albicans cells were incubated with MIC of compounds in YEPD at 30 °C with agitation for 30 min. Cells were centrifuged (4600 rpm, 4 °C for 5 min (Rotanata 460 R, Hettich, Tuttlingen, Germany)) and the pellet was resuspended in 300 µL of RNA buffer (0.1 M Tris-HCl pH 7.5, 0.1M LiCl, 10mM EDTA, 0.5% SDS). The pellet was homogenized with 200 µL of DEPC treated glass beads and 300 µL of Phenol:Chloroform:Isoamyl Alcohol (Sigma-Aldrich, Darmstadt, Germany) in Precellys Evolution tissue homogenizer (Bertion instruments, Montigny-le-Bretonneux, France) at 4500 rpm for 5 s. After centrifugation (14,000 rpm, 4 °C, 1 min (Universal 32 R, Hettich, Tuttlingen, Germany)) 200 µL of supernatant was vortexed with 250 µL of Phenol:Chloroform:Isoamyl Alcohol for 10 s. Samples were centrifuged (14,000 rpm, 4 °C, 1 min) and 200 µL of supernatant was transferred to new tubes, 400 µL of ice-cold 99% ethanol was added to each tube, and they were kept on dry ice for 10 min. Samples were centrifuged (14,000 rpm, 4 °C, 2 min), pellet was washed with ethanol (70%), left to dry at room temperature, after which it was dissolved in 50 µL of DEPC treated water. Nanodrop (ND-1000, Witec AG, Sursee, Switzerland) was used for determination of concentration and purity of samples. RNA was stored at −80°C.
(§2) Amount of 10 µg RNA was incubated with 5 µL of DNAse buffer and 1 µL of DNAse at 37 °C for 30 min (DNA-free™ DNA Removal Kit, Ambion, Bleiswijk, Netherlands). After addition of DNAse inactivation reagent tubes were kept at room temperature with occasional vortexing for 5 min. Samples were centrifuged (14,000 rpm, 4°C, 2 min) and the concentration and quality of supernatant were analyzed on Nanodrop (ND-1000, Witec AG, Sursee, Switzerland).
(§3) Synthesis of cDNA was done with a Transcriptor High Fidelity cDNA synthesis kit (Roche). RNA (1 µg) was incubated with 60 µM random hexamer primers, in 11.4 µL of total sample volume, at 65 °C for 10 min. The mixture of Transcriptase reaction buffer 5×, Deoxynucleotide mix, DTT, Protector RNAse inhibitor, and Transcriptor High Fidelity Reverse Transcriptase was added to each tube according to manufacturer instructions. Synthesis of cDNA was completed by incubating the mixture at 50 °C for 30 min and 85 °C for 5 min (Peqstar thermocycler, Peqlab, Erlangen, Germany).
(§4) Wells of MicroAmp Fast 96-Well Reaction plate ((0.1 mL), Applied biosystems, Waltham, MA, USA) were incubated with 10 µL of mixture (cDNA, 2× MasterMix, primers, probe (Table 3), and water). Analysis was performed in StepOnePlus Real Time PCR system with relative standard curve method. Expression levels of CDR1 and ERG11 were normalized to expression of ACT1.

[3] = test system: ALS1, ALS3, HWP1, SUN41; details: ref 18; cited from earlier work
[4] = test system: CDR1; experiment: Expression of CDR1 (qPCR); format: cell-based, Candida albicans; details: treatment with MIC
Experimental: as §1, §2, §3, §4

[5] = test system: HUVE (human umbilical vein endothelial) cells; details: read-out: LC50; cited from earlier work
[6] = test system: C. albicans morphological transition; details: cited from earlier work
[7] = test system: S. aureus efflux; set-up: method as in PMID 25961825; details: S. aureus; cited from earlier work

SMILES | cytotoxic effects [1] | impact on ERG11 expression (words) [2] | ERG11 expression level, Log2FC ([2]; 30 min, normalized to ACT1) [Log2FC] | impact on ERG11 expression (words) ([2]; listed as isoquercitrin) | ALS1, ALS3, HWP1 and SUN41 expression levels [3] | impact on CDR1 expression [4] | CC50 [5] [µM] | concentration leading to reduction of morphological transition ([6]; ref 18) [µg/mL] | concentration leading to reduction of morphological transition ([6]; ref 28) | IC50, efflux inhibition [7] [µg/mL]
O=c1c(O[C@@H]2O[C@H](CO)[C@@H](O)[C@H](O)[C@H]2O)c(-c2ccc(O)c(O)c2)oc2cc(O)cc(O)c12 [Isoquercitrin, isoquercitrin] | did not show cytotoxic effects | increased expression levels | > 1 | upregulated; also recorded: increased ERG11 expression |  |  |  |  |  | 
O=c1c(O)c(-c2ccc(O)c(O)c2)oc2cc(O)cc(O)c12 [Quercetin, quercetin] |  |  |  |  | reduced | did not exhibit any significant inhibitory potential | 61 | 64 | up to 200 µg/mL | 75 (≈ 248 µM)
